Laboratory results: article PMC9229817, “Synthesis of novel isoxazole–carboxamide derivatives as promising agents for melanoma and targeted nano-emulgel conjugate for improved cellular permeability” (BMC Chemistry, 2022)
Where “and” joins values, the source holds several entries; their conditions need not be identical. Equal entries are not always repeated. Where two headings read alike, the source gives them in different places.

Columns and labels:
B16F1 [1] = assay: MTS assay, B16F1 melanoma cells; format: cell-based; settings: for IC50: MTS, 24 h treatment
Experimental: (§1) Hepatocellular carcinoma (Hep3B and HepG2), cervical adenocarcinoma (HeLa), breast carcinoma (MCF-7), melanoma (B16F1), colorectal adenocarcinoma (Caco-2), and colon adenocarcinoma (Colo205), as well as human hepatic stellate (LX-2) in addition to the normal cell line (Hek293T), were used as cancer and normal cell lines and were cultured in RPMI-1640 media and supplemented with 10.0% fetal bovine serum, 1.0% l-glutamine and 1.0% Penicillin/Streptomycin antibiotics. After that, the cells matured in a moist atmosphere with 5.0% CO2 at 37 °C. In a 96-well plate, the cells were seeded at 2.5 × 10^4 cells/well. After 72 h, the cells were confluent, the media was changed, and then the cells were incubated with various concentrations (300, 100, 50, 10, and 1 µM), as well as lower concentrations (500, 100, and 50 nM) were used, especially for compound 2e against the B16-F1 cancer cell line to calculate accurate IC50 values for the evaluated compounds (2a–2f) for 24 h. The viability of cells was assessed by the Cell Tilter 96® Aqueous One Solution Cell Proliferation (MTS) Assay according to the manufacturer’s procedures (Promega Corporation, Madison, WI). However, at the end of the treatment, about 20 μl/100 μl of MTS solution/media was added to each well and for 2 h, they were incubated at 37 °C. Finally, the absorbance was measured at 490 nm.

Colo205 = assay: MTS assay, Colo205 colon adenocarcinoma cells; format: cell-based; settings: for IC50: MTS, 24 h treatment; for viability at 50 µM: COLO 205, read-out: Cell viability percentage, Colo205
Experimental: as §1

HepG2 = assay: MTS assay, HepG2 hepatocellular carcinoma cells; format: cell-based; settings: for viability at 50 µM: read-out: Cell viability percentage, HepG2; for IC50: MTS, 24 h treatment
Experimental: as §1

CaCo-2 = assay: MTS assay, CaCo-2 colorectal adenocarcinoma cells; format: cell-based
Experimental: as §1

HeLa = assay: MTS assay, HeLa cervical adenocarcinoma cells; format: cell-based, Human; settings: 24 h treatment
Experimental: as §1

Hep3B = assay: MTS assay, Hep3B hepatocellular carcinoma cells; format: cell-based; settings: 24 h treatment
Experimental: as §1

MCF-7 = assay: MTS assay, MCF-7 breast carcinoma cells; format: cell-based, Human
Experimental: as §1

Hek293t = assay: MTS assay, normal cell line Hek293t; format: cell-based; settings: 24 h treatment
Experimental: as §1

[2] = test system: B16F1, Colo205, HepG2, and HeLa cancer cell lines; assay: MTS assay, IC50 range over a panel of cancer cell lines; format: cell-based
Experimental: as §1

B16F1 [3] = assay: MTS assay, B16F1 melanoma cells; format: cell-based; settings: compound versus its nano-emulgel at 1, 0.5, 0.1, 0.05, and 0.01 µM
[4] = test system: human hepatic stellate cell (HSC) line LX-2; assay: Anti-fibrotic activity, MTS viability of LX-2 cells; format: cell-based; settings: 1 µM
Experimental: Hepatocellular carcinoma (Hep3B and HepG2), cervical adenocarcinoma (HeLa), breast carcinoma (MCF-7), melanoma (B16F1), colorectal adenocarcinoma (Caco-2), and colon adenocarcinoma (Colo205), as well as human hepatic stellate (LX-2) in addition to the normal cell line (Hek293T), were used as cancer and normal cell lines and were cultured in RPMI-1640 media and supplemented with 10.0% fetal bovine serum, 1.0% l-glutamine and 1.0% Penicillin/Streptomycin antibiotics. After that, the cells matured in a moist atmosphere with 5.0% CO2 at 37 °C. In a 96-well plate, the cells were seeded at 2.5 × 10^4 cells/well. […] The viability of cells was assessed by the Cell Tilter 96® Aqueous One Solution Cell Proliferation (MTS) Assay according to the manufacturer’s procedures (Promega Corporation, Madison, WI). […] Finally, the absorbance was measured at 490 nm.
To explore the anti-fibrotic effects of these compounds on human hepatic stellate cell (HSC) line LX-2, the viability of LX-2 cells following various compounds' treatment was determined by the MTS assay.

[5] = Homo sapiens, Caco-2, 24 h treatment
[6] = Homo sapiens, MCF7, 24 h treatment

Row | Structure (SMILES) | IC50 (B16F1 [1]; Mus musculus, B16-F1) | IC50 (Colo205; Homo sapiens, COLO 205, 24 h) | IC50 (Colo205) | IC50 (HepG2; Homo sapiens, HepG2) | IC50 (CaCo-2; [5]) | IC50 (HeLa; Homo sapiens, HeLa) | IC50 (Hep3B; Homo sapiens, Hep3B) | IC50 (MCF-7; [6]) | IC50 (Hek293t; Homo sapiens, HEK-293T) | IC50 (B16F1 [1]) | IC50 (HepG2) | IC50 (CaCo-2; 24 h treatment) | IC50 (HeLa) | IC50 (Hep3B) | IC50 (MCF-7; 24 h treatment) | IC50 (Hek293t) | also measured
1 | COc1cc(NC(=O)c2c(-c3ccccc3)noc2C)c(OC)cc1Cl [2a, N-(4–Chloro-2,5-dimethoxyphenyl)-5-methyl-3-phenylisoxazole-4–Carboxamide] | 29.7 ± 2.12 µM | 9.18 µM | 9.18 ± 0.88 µM | 7.55 ± 0.79 µM | 129 ± 2.47 µM | 40.8 ± 1.25 µM | > 200 µM | > 200 µM | 2.54 ± 1.4 µM | – | – | – | – | – | – | – | viability at 50 µM (Colo205; Homo sapiens): 39.4%; viability at 50 µM (HepG2; Homo sapiens, HepG2): 29.2%; IC50 ([2]; range over five cancer cell lines, read-out: IC50 range on five cancer cell lines): 7.54 to 129 µM; IC50 ([2]; range over four cancer cell lines, read-out: IC50 range against B16F1, Colo205, HepG2, and HeLa): 7.55 to 40.9 µM
2 | Cc1onc(-c2ccccc2)c1C(=O)Nc1cccc(C(F)(F)F)c1 [2b, 5-Methyl-3-phenyl-N-(3-(trifluoromethyl)phenyl) isoxazole-4–Carboxamide] | – | – | > 200 µM | – | – | – | – | – | – | 42.9 ± 1.55 µM | 53.6 ± 2.04 µM | > 200 µM | > 200 µM | > 200 µM | > 200 µM | 148 ± 2.74 µM | –
3 | COc1ccccc1Oc1ccc(NC(=O)c2c(-c3ccccc3)noc2C)cc1 [2c, N-(4-(2-Methoxyphenoxy)phenyl)-5-methyl-3-phenylisoxazole-4–Carboxamide] | 21.1 ± 0.78 µM | 183 ± 2.05 µM | – | 120 ± 2.19 µM | > 200 µM | > 200 µM | > 200 µM | > 200 µM | 20.2 ± 1.32 µM | – | – | – | – | – | – | – | melting point: 179 to 180 °C
4 | CSc1ccc(NC(=O)c2c(-c3ccccc3)noc2C)cc1 [2d, 5-Methyl-N-(4-(methylthio)phenyl)-3-phenylisoxazole-4–Carboxamide] | 39.8 ± 1.45 µM | 216.4 ± 1.58 µM | – | 37.9 ± 2.07 µM | > 200 µM | > 200 µM | > 200 µM | > 200 µM | > 200 µM | – | – | – | – | – | – | – | melting point: 144 to 146 °C
5 | Cc1onc(-c2ccccc2)c1C(=O)Nc1ccc(OC(F)(F)F)cc1 [2e, 5-Methyl-3-phenyl-N-(4-(trifluoromethoxy)phenyl) isoxazole-4–Carboxamide] | – | – | > 200 µM | – | – | – | – | – | – | 0.079 µM | > 200 µM | > 200 µM | > 200 µM | > 200 µM | > 200 µM | 190 ± 2.67 µM | Cell viability percentage, B16F1 (B16F1 [1]; 50 µM): 18.42%; IC50 (B16F1 [3]): 0.079 µM
6 | Cc1onc(-c2ccccc2)c1C(=O)Nc1ccc(-c2cccs2)cc1 [2f, 5-Methyl-3-phenyl-N-(4-(thiophen-2-yl)phenyl) isoxazole-4–Carboxamide] | – | – | 75.4 ± 2.41 µM | – | – | – | – | – | – | 12.7 ± 1.01 µM | 38.4 ± 1.07 µM | > 200 µM | > 200 µM | 54.6 ± 2.11 µM | > 200 µM | 7.91 ± 0.61 µM | Cell viability percentage, B16F1 (B16F1 [1]; 50 µM): 34.03%; Cellular viability of LX-2 [4]: 66.55%
7 | O=c1[nH]cc(F)c(=O)[nH]1 [5-FU] | – | – | – | – | – | – | – | – | – | – | – | – | – | – | – | – | Cellular viability of LX-2 [4]: 95% and 94.64%
8 | COc1cccc2c1C(=O)c1c(O)c3c(c(O)c1C2=O)C[C@@](O)(C(=O)CO)C[C@@H]3O[C@H]1C[C@H](N)[C@H](O)[C@H](C)O1 [Dox, Doxorubicin, reference compound] | 0.056 µM | – | – | – | – | – | – | – | – | – | – | – | – | – | – | – | viability at 50 µM (B16F1 [1]; Mus musculus, B16-F1, 50 µM, read-out: Cell viability percentage, B16F1): 21.8%; viability at 50 µM (Colo205; Homo sapiens): 9.89%; viability at 50 µM (HepG2; Homo sapiens, HepG2): 9.46%
